Data published in patent US20250368687A1, “SHORT SYNTHETIC PEPTIDES AND USES THEREOF IN THE TREATMENT OF ENTEROVIRUS INFECTION” (CITY UNIVERSITY OF HONG KONG, priority 2024, published 2025).

Assays:
[1] = tested on: EV-A71; assay: Viral RNA quantification by RT-qPCR; assay type: cell-based; details: for decrease of extracellular viral RNA level: 25 μM, EV-A71 MOI 1 for 12 hours; for decrease of extracellular viral RNA level / decrease of viral RNA / viral RNA level (in words): RD cells; for decrease of viral RNA: 50 μM; for decrease of viral RNA / viral RNA level (in words): intracellular viral RNA; for viral RNA level (in words): indicated concentrations; for effect on viral RNA level: 8 μM
Protocol: FIGS. 7A-7D Ser78 phosphorylation-deficient Hsp27 inhibits EV-A71 replication and propagation (FIG. 7A) HEK 293T cells were transfected with 500 ng Hsp27 (WT, 3A, S15A, S78A, S82A) plasmids for 48 hours, and then infected with EV-A71 at an MOI of 10 for 9h. Intracellular viral RNA were extracted and quantified by qPCR. (FIG. 7B) HEK 293T cells were transfected with 500 ng Hsp27 (WT, 3D, S15D, S78D, S82D) plasmids for 48 hours, and then infected with EV-A71 at an MOI of 10 for 9h. Intracellular viral RNA were extracted and quantified by qPCR. (FIG. 7C) HEK 293T cells were transfected with 500 ng Hsp27 (WT, S78A, S78D) plasmids for 48 hours, and treated with 8 μM SB203580 2 hours before infection with EV-A71. (FIG. 7D) HEK 293T cells were transfected with 500 ng Hsp27 (WT, 3A, S15A, S78A, S82A) plasmids for 48 hours, and then infected with EV-A71 at an MOI of 10 for 12h. Viral titration was calculated by TCID50. Statistical analyses were carried out using Student's t-test. *: p<0.05, **: p<0.01, ***: p<0.001. Data are expressed as mean ±SD.
FIGS. 10A-10K. Peptide S78 inhibited EV-A71 replication and propagation. (FIG. 10A) RD cells were pre-treated with peptides S78 or for 2 hours and infected with EV-A71 at the MOI of 10 for 6 hours. Cell lysates were collected for western blot assay. Hsp27 phosphorylation on Ser 15, 78, 82 were detected by specific antibodies. β-Actin were detected as internal control. (FIG. 10B) Densitometric analysis of FIG. 9A. (FIG. 10C) HEK 293T cells were pre-treated with peptides S78 or S78A at the concentration of 25 μM for 2 hours and then co-transfected with Hsp27-WT plasmid (800 ng), pIRES reporter plasmid (200 ng) and 2A^pro-expressing plasmid or 2AC110A-expressing plasmid (200 ng) for 24 h, then the luciferase activity was measured. (FIG. 10D-10E) RD cells were treated with peptides S78 or S78A and then infected with EV-A71. EV-A71 VP1 were detected. (FIG. 10F) RD cells were treated with peptides and then infected with EV-A71 at the MOI of 1 for 12 hours. The EV-A71-induced CPE was captured. (FIG. 10G-10H) Intracellular viral RNA was extracted and quantified by qPCR. (FIG. 10I) Densitometric analysis FIG. 9D-E. (FIG. 10J) RD cells were treated with peptides S78 or and then infected with EV-A71 at the MOI of 1 for 12 hours. Extracellular viral RNA was extracted and quantified by qPCR. (FIG. 10K) Viral titration was calculated by TCID50. The Statistical analyses were carried out using Student's t-test. *: p<0.05, **: p<0.01, ***: p<0.001. Data are expressed as mean ±SD.
FIGS. 11A-11G Inhibition of EV-A71 Protein Translation and Viral Reproduction by peptide S82A. (FIG. 11A) HEK 293T cells were pre-treated with peptides NC, S78, S78A, S82A, or S78-3A at the concentration of 25 μM for 2 hours and then co-transfected with Hsp27-WT plasmid (800 ng), pIRES reporter plasmid (200 ng) and 2A^pro-expressing plasmid for 24 h, then the luciferase activity was measured. (FIG. 11B) RD cells were pre-treated with peptides NC at indicated concentrations for 2 hours and infected with EV-A71 at the MOI of 1 for 9 hours. Intracellular viral RNA was extracted and quantified by qPCR. (FIG. 11C-11E) RD cells were treated with peptides NC, S82A, or S78-3A at indicated concentrations for 2 hours and then infected with EV-A71 at the MOI of 1 for 9 hours. Cell lysates were collected for western blot assay. EV-A71 VP1 were detected. β-Actin was detected as an internal control. (FIG. 11F) Densitometric analysis of the EV-A71 VP1 level in FIG. S7C-E was quantified and normalized with β-Actin using ImageJ. (FIG. 11G) RD cells were treated with peptides S78, S78A, S82A, or S78-3A at the concentration of 25 μM for 2 hours and then infected with EV-A71 at the MOI of 0.1 for 24 hours. Viral titration was calculated. The Statistical analyses were carried out using Student's t-test. *: p<0.05, **: p<0.01, ***: p<0.001. Data are expressed as mean ±SD. […]

[2] = tested on: Hsp27 and hnRNP A1 redistribution in RD cells; assay: Immunofluorescence colocalization assay of Hsp27/hnRNP A1 redistribution, RD cells with or without EV-A71 infection; assay type: cell-based; details: for redistribution of Hsp27 and hnRNP A1 in EV-A71-infected RD cells / localization of Hsp27 and hnRNP A1 in mock RD cells: 25 μM for 2h; for redistribution of Hsp27 and hnRNP A1 in EV-A71-infected RD cells: EV-A71 MOI 40 for 6h; for localization of Hsp27 and hnRNP A1 in mock RD cells: without EV-A71; for fraction of Hsp27 overlapping DAPI (M1 colocalization coefficient): EV-A71-infected RD cells
Protocol: The cells on coverslips were infected with EV-A71 at the multiplicity of infection (MOI) of 40 for 6 hrs to assure the high efficiency of viral infection. Then the cells were fixed by 4% paraformaldehyde for 20 min, permeabilized by 0.5% Triton X-100 for 15 min, blocked with 5% BSA for 2 hrs, and stained by incubation with anti-Hsp27 (GTX101145) and anti-hnRNP A1 (sc-32301) antibody, then with Alexa Fluor 488 conjugated anti-rabbit antibody and Alexa Fluor 594 conjugated anti-mouse antibody respectively. After washing four times with 0.2% Triton X-100, the nuclei were stained with DAPI or Hoechst for 5 min. The images were captured by a Nikon A1HD25 High speed and Large Field of View Confocal Microscope. Colocalization analysis was conducted using the JACoP-plugin of the extended ImageJ version Fiji. The M1 colocalization coefficient was computed to illustrate the colocalization levels of Hsp27 and hnRNP A1 overlapped with Hoechst.
Hsp27 is predominantly located in the cytoplasm, however, stress (e.g., heat shock, virus infection) can induce partial redistribution of Hsp27 from the cytoplasm to the nucleus, concomitantly with its phosphorylation. We thus postulated that the cellular redistribution of Hsp27 may be associated with its phosphorylation upon EV-A71 infection. To verify the hypothesis, RD cells were with SB203580 at 0, 2, 4, and 8 μM for 2 h, and the cells were infected with EV-A71 for 6 h. […] The colocalization of Hsp27 and DAPI, which stands for the level of redistribution of Hsp27, was also quantified. The colocalization coefficient M1 was computed as the fraction of Hsp27 colocalized with DAPI in the total Hsp27 area using the JACoP-plugin in FIJI.
We hypothesized that peptides S78 and S82A could interfere with Ser78 phosphorylation while peptides S78A (Ser78 replaced by Ala78) would not affect the phosphorylation of Ser78 of Hsp27. […] RD cells were pre-treated with peptide S78, S78A or S82A at the concentrations of 25 μM for 2h and then infected with or without EV-A71 at an MOI of 40 for 6h.

Compound: Ac-RKKRRQRRRAYSRALSRQLSS-NH2 [S78]
- decrease of extracellular viral RNA level [1]: 800 folds
- decrease of viral RNA [1]: 82%
- viral RNA level (in words) [1]: dramatically reduced
- redistribution of Hsp27 and hnRNP A1 in EV-A71-infected RD cells [2]: dramatically blocked
- localization of Hsp27 and hnRNP A1 in mock RD cells [2]: not affected

Compound: Ac-RKKRRQRRRYSREANQPKPSPKRESGEE-NH2 [NC, reference compound]
- viral RNA level (in words) [1]: no effect
- redistribution of Hsp27 and hnRNP A1 in EV-A71-infected RD cells [2]: did not affect

Compound: C[S+]([O-])c1ccc(-c2nc(-c3ccncc3)c(-c3ccc(F)cc3)[nH]2)cc1 (stereo not shown) [SB203580, reference compound]
- decrease of viral RNA level ([1]; 8 μM 2 hours before infection, Hsp27 over-expressing HEK 293T cells): 50%
- effect on viral RNA level ([1]; Hsp27 S78A-expressing HEK 293T cells): no obvious effects
- effect on viral RNA level ([1]; Hsp27 S78D-expressing HEK 293T cells): no obvious effects
- fraction of Hsp27 overlapping DAPI (M1 colocalization coefficient) ([2]; 0, 2, 4, 8 μM): reduced in a dose-dependent manner
- nuclear Hsp27 level upon EV-A71 infection ([2]; 2 μM for 2 h, EV-A71 6 h, RD cells): markedly reduced
- nuclear relocation of Hsp27 upon EV-A71 infection ([2]; 4 μM for 2 h, EV-A71 6 h, RD cells): further blocked to an invisible level
- fraction of Hsp27 overlapping DAPI (M1 colocalization coefficient) ([2]; 8 μM): reduced to the basal level
- Hsp27 translocation to the nucleus without EV-A71 infection ([2]; RD cells without EV-A71 infection): not translocated to the nucleus

Compound: Ac-RKKRRQRRRAYSRALARQLSS-NH2 [S78A]
- decrease of extracellular viral RNA level [1]: 30 folds
- decrease of viral RNA [1]: 46%
- redistribution of Hsp27 and hnRNP A1 in EV-A71-infected RD cells [2]: only partially reduced
- localization of Hsp27 and hnRNP A1 in mock RD cells [2]: not affected
